Measurements published in ChEMBL document CHEMBL3885881, “DrugMatrix”.

Species on record: Rattus norvegicus
Assay: DrugMatrix - Regimen: Daily Repeat
Format: toxicity, organism-based, Sprague-Dawley
Set-up: regimen Daily Repeat, gender Male, age 6-8 weeks
Details: in vivo, po, route oral GAVAGE, vehicle .5 % CMC; for ABSOLUTE BASOPHIL / ABSOLUTE EOSINOPHIL / ABSOLUTE LYMPHOCYTE / ABSOLUTE MONOCYTE / ABSOLUTE SEGMENTED NEUTROPHIL / BASOPHIL / EOSINOPHIL / ERYTHROCYTE COUNT / HEMATOCRIT / HEMOGLOBIN / LEUKOCYTE COUNT / LYMPHOCYTE / MEAN CORPUSCULAR HEMOGLOBIN / MEAN CORPUSCULAR HEMOGLOBIN CONCENTRATION / MEAN CORPUSCULAR VOLUME / MONOCYTE / NEUTROPHIL / NUCLEATED RED BLOOD CELLS / PLATELET COUNT: tissue Blood; for ALANINE AMINOTRANSFERASE / ALBUMIN / ALKALINE PHOSPHATASE / ASPARTATE AMINOTRANSFERASE / BLOOD UREA NITROGEN / CARBON DIOXIDE / CHLORIDE / CHOLESTEROL / CREATINE PHOSPHOKINASE / CREATININE / GLUCOSE / LACTATE DEHYDROGENASE / LIPASE / PHOSPHORUS / POTASSIUM / SODIUM / TOTAL BILIRUBIN / TOTAL PROTEIN / URIC ACID: tissue Plasma
[1] = 30 mg/kg, 72 h, dose level Low, time 3 day
[2] = 30 mg/kg, 120 h, dose level Low, time 5 day
[3] = 570 mg/kg, 72 h, dose level High, time 3 day
[4] = 570 mg/kg, 120 h, dose level High, time 5 day

SMILES: O=C(O)COc1ccc(C(=O)c2cccs2)c(Cl)c1Cl
- ABSOLUTE BASOPHIL [1]: 0 CELLS/uL
- ABSOLUTE EOSINOPHIL [1]: 0 CELLS/uL
- ABSOLUTE LYMPHOCYTE [1]: 7024 CELLS/uL
- ABSOLUTE MONOCYTE [1]: 269 CELLS/uL
- ABSOLUTE SEGMENTED NEUTROPHIL [1]: 840.33 CELLS/uL
- BASOPHIL [1]: 0%
- EOSINOPHIL [1]: 0%
- ERYTHROCYTE COUNT [1]: 5.29 x10E6/uL
- HEMATOCRIT [1]: 33.2%
- HEMOGLOBIN [1]: 12.83 G/DL
- LEUKOCYTE COUNT [1]: 8.13 x10E3/uL
- LYMPHOCYTE [1]: 86.33%
- MEAN CORPUSCULAR HEMOGLOBIN [1]: 24.27 pg
- MEAN CORPUSCULAR HEMOGLOBIN CONCENTRATION [1]: 38.67 G/DL
- MEAN CORPUSCULAR VOLUME [1]: 62.8 fL
- MONOCYTE [1]: 3%
- NEUTROPHIL [1]: 10.67%
- NUCLEATED RED BLOOD CELLS [1]: 0.67 /100WBC
- PLATELET COUNT [1]: 1021.33 x10E3/uL
- ALANINE AMINOTRANSFERASE [1]: 60.33 u/L
- ALBUMIN [1]: 4.17 G/DL
- ALKALINE PHOSPHATASE [1]: 394.67 u/L
- ASPARTATE AMINOTRANSFERASE [1]: 94.33 u/L
- BLOOD UREA NITROGEN [1]: 14.67 mg/dL
- CARBON DIOXIDE [1]: 33.67 mmol/L
- CHLORIDE [1]: 99.67 MEQ/L
- CHOLESTEROL [1]: 74 mg/dL
- CREATINE PHOSPHOKINASE [1]: 524.67 u/L
- CREATININE [1]: 0.26 mg/dL
- GLUCOSE [1]: 144.67 mg/dL
- LACTATE DEHYDROGENASE [1]: 159 u/L
- LIPASE [1]: 9.33 u/L
- PHOSPHORUS [1]: 12.93 mg/dL
- POTASSIUM [1]: 6.21 MEQ/L
- SODIUM [1]: 144.4 MEQ/L
- TOTAL BILIRUBIN [1]: 0.17 mg/dL
- TOTAL PROTEIN [1]: 6.2 G/DL
- URIC ACID [1]: 0.5 mg/dL
- ABSOLUTE BASOPHIL [2]: 0 CELLS/uL
- ABSOLUTE EOSINOPHIL [2]: 52.67 CELLS/uL
- ABSOLUTE LYMPHOCYTE [2]: 10475.33 CELLS/uL
- ABSOLUTE MONOCYTE [2]: 92 CELLS/uL
- ABSOLUTE SEGMENTED NEUTROPHIL [2]: 1380 CELLS/uL
- BASOPHIL [2]: 0%
- EOSINOPHIL [2]: 0.33%
- ERYTHROCYTE COUNT [2]: 5.51 x10E6/uL
- HEMATOCRIT [2]: 35.03%
- HEMOGLOBIN [2]: 13.53 G/DL
- LEUKOCYTE COUNT [2]: 12 x10E3/uL
- LYMPHOCYTE [2]: 87.67%
- MEAN CORPUSCULAR HEMOGLOBIN [2]: 24.53 pg
- MEAN CORPUSCULAR HEMOGLOBIN CONCENTRATION [2]: 38.63 G/DL
- MEAN CORPUSCULAR VOLUME [2]: 63.57 fL
- MONOCYTE [2]: 0.67%
- NEUTROPHIL [2]: 11.33%
- NUCLEATED RED BLOOD CELLS [2]: 0 /100WBC
- PLATELET COUNT [2]: 1276 x10E3/uL
- ALANINE AMINOTRANSFERASE [2]: 51 u/L
- ALBUMIN [2]: 4.23 G/DL
- ALKALINE PHOSPHATASE [2]: 420.67 u/L
- ASPARTATE AMINOTRANSFERASE [2]: 78.33 u/L
- BLOOD UREA NITROGEN [2]: 13 mg/dL
- CARBON DIOXIDE [2]: 35.67 mmol/L
- CHLORIDE [2]: 97.33 MEQ/L
- CHOLESTEROL [2]: 80 mg/dL
- CREATINE PHOSPHOKINASE [2]: 446.67 u/L
- CREATININE [2]: 0.27 mg/dL
- GLUCOSE [2]: 136 mg/dL
- LACTATE DEHYDROGENASE [2]: 169.67 u/L
- LIPASE [2]: 8.33 u/L
- PHOSPHORUS [2]: 12.7 mg/dL
- POTASSIUM [2]: 6.46 MEQ/L
- SODIUM [2]: 142.87 MEQ/L
- TOTAL BILIRUBIN [2]: 0.2 mg/dL
- URIC ACID [2]: 0.8 mg/dL
- ABSOLUTE BASOPHIL [3]: 0 CELLS/uL
- ABSOLUTE EOSINOPHIL [3]: 0 CELLS/uL
- ABSOLUTE LYMPHOCYTE [3]: 14484.67 CELLS/uL
- ABSOLUTE MONOCYTE [3]: 271.67 CELLS/uL
- ABSOLUTE SEGMENTED NEUTROPHIL [3]: 1143.67 CELLS/uL
- BASOPHIL [3]: 0%
- EOSINOPHIL [3]: 0%
- ERYTHROCYTE COUNT [3]: 5.25 x10E6/uL
- HEMATOCRIT [3]: 32.4%
- HEMOGLOBIN [3]: 12.33 G/DL
- LEUKOCYTE COUNT [3]: 15.9 x10E3/uL
- LYMPHOCYTE [3]: 91.33%
- MEAN CORPUSCULAR HEMOGLOBIN [3]: 23.47 pg
- MEAN CORPUSCULAR HEMOGLOBIN CONCENTRATION [3]: 38.03 G/DL
- MEAN CORPUSCULAR VOLUME [3]: 61.6 fL
- MONOCYTE [3]: 1.67%
- NEUTROPHIL [3]: 7%
- NUCLEATED RED BLOOD CELLS [3]: 0 /100WBC
- PLATELET COUNT [3]: 1320.33 x10E3/uL
- ALANINE AMINOTRANSFERASE [3]: 61.67 u/L
- ALBUMIN [3]: 4.03 G/DL
- ALKALINE PHOSPHATASE [3]: 478 u/L
- ASPARTATE AMINOTRANSFERASE [3]: 93 u/L
- BLOOD UREA NITROGEN [3]: 14.67 mg/dL
- CARBON DIOXIDE [3]: 35.67 mmol/L
- CHLORIDE [3]: 97 MEQ/L
- CHOLESTEROL [3]: 89.67 mg/dL
- CREATINE PHOSPHOKINASE [3]: 605.33 u/L
- CREATININE [3]: 0.23 mg/dL
- GLUCOSE [3]: 141.33 mg/dL
- LACTATE DEHYDROGENASE [3]: 128 u/L
- LIPASE [3]: 9 u/L
- PHOSPHORUS [3]: 10.17 mg/dL
- POTASSIUM [3]: 5.26 MEQ/L
- SODIUM [3]: 142.77 MEQ/L
- TOTAL BILIRUBIN [3]: 0.2 mg/dL
- TOTAL PROTEIN [3]: 6.27 G/DL
- URIC ACID [3]: 0.47 mg/dL
- ABSOLUTE BASOPHIL [4]: 0 CELLS/uL
- ABSOLUTE EOSINOPHIL [4]: 0 CELLS/uL
- ABSOLUTE LYMPHOCYTE [4]: 19963.33 CELLS/uL
- ABSOLUTE MONOCYTE [4]: 319.33 CELLS/uL
- ABSOLUTE SEGMENTED NEUTROPHIL [4]: 2417.33 CELLS/uL
- BASOPHIL [4]: 0%
- EOSINOPHIL [4]: 0%
- ERYTHROCYTE COUNT [4]: 5.25 x10E6/uL
- HEMATOCRIT [4]: 32.67%
- HEMOGLOBIN [4]: 12.47 G/DL
- LEUKOCYTE COUNT [4]: 22.7 x10E3/uL
- LYMPHOCYTE [4]: 88.33%
- MEAN CORPUSCULAR HEMOGLOBIN [4]: 23.73 pg
- MEAN CORPUSCULAR HEMOGLOBIN CONCENTRATION [4]: 38.17 G/DL
- MEAN CORPUSCULAR VOLUME [4]: 62.33 fL
- MONOCYTE [4]: 1.33%
- NEUTROPHIL [4]: 10.33%
- NUCLEATED RED BLOOD CELLS [4]: 0 /100WBC
- PLATELET COUNT [4]: 1428 x10E3/uL
- ALANINE AMINOTRANSFERASE [4]: 48 u/L
- ALBUMIN [4]: 4.13 G/DL
- ALKALINE PHOSPHATASE [4]: 359.33 u/L
- ASPARTATE AMINOTRANSFERASE [4]: 74 u/L
- BLOOD UREA NITROGEN [4]: 15.67 mg/dL
- CARBON DIOXIDE [4]: 34.33 mmol/L
- CHLORIDE [4]: 100 MEQ/L
- CHOLESTEROL [4]: 70.33 mg/dL
- CREATINE PHOSPHOKINASE [4]: 268.67 u/L
- CREATININE [4]: 0.29 mg/dL
- GLUCOSE [4]: 144 mg/dL
- LACTATE DEHYDROGENASE [4]: 153.33 u/L
- LIPASE [4]: 6.67 u/L
- PHOSPHORUS [4]: 11 mg/dL
- POTASSIUM [4]: 6.13 MEQ/L
- SODIUM [4]: 144.77 MEQ/L
- TOTAL BILIRUBIN [4]: 0.2 mg/dL
- TOTAL PROTEIN [4]: 6.1 G/DL
- URIC ACID [4]: 1.3 mg/dL
